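96-well plates; 48 h exposure; 5 concentrations. Endpoints by linear interpolation between flanking doses. Not reached: highest tested concentration assigned. At the GI50, growth is halved. TGI denotes the concentration required for complete inhibition of growth.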
Legend:
Test in all cases: NCI anticancer screen, dose series, 48 h
[1] = tested on: M14 melanoma
[2] = tested on: HCC-2998 colon
[3] = tested on: SNB-19 CNS
[4] = tested on: LOX IMVI melanoma
[5] = tested on: OVCAR-5 ovarian
[6] = tested on: CAKI-1 renal
[7] = tested on: DU-145 prostate
[8] = tested on: SK-OV-3 ovarian
[9] = tested on: EKVX NSCLC
[10] = tested on: HCT-116 colon

| SMILES | GI50 [1] [µM] | TGI [1] [µM] | GI50 [2] [µM] | TGI [2] [µM] | GI50 [3] [µM] | TGI [3] [µM] | GI50 [4] [µM] | TGI [4] [µM] | GI50 [5] [µM] | TGI [5] [µM] | GI50 [6] [µM] | TGI [6] [µM] | GI50 [7] [µM] | TGI [7] [µM] | GI50 [8] [µM] | TGI [8] [µM] | GI50 [9] [µM] | TGI [9] [µM] | GI50 [10] [µM] | TGI [10] [µM] |
| --- | --- | --- | --- | --- | --- | --- | --- | --- | --- | --- | --- | --- | --- | --- | --- | --- | --- | --- | --- | --- |
| COc1cc2c(cc1OC)-c1ccc3cc4c(cc3c1N(CCN(C)C)C2)OCO4 | 0.43 | 4.85 | 1.29 | 2.87 | 0.4 | 11.9 | 0.271 | 1.32 | 1.53 | 5.23 | 0.596 | 11.4 | 0.377 | 8.76 | 0.518 | 3.2 | 1.33 | 13.7 | 0.411 | 1.83 |
| CCCOC(=O)N[C@H]1CCc2cc(OC)c(OC)c(OC)c2-c2ccc(SC)c(=O)cc21 | < 0.01 |  | < 0.01 | 4.92 | < 0.01 | > 100 | < 0.01 | > 42.4 | < 0.01 | > 100 | < 0.0201 | 24.2 | < 0.01 | > 100 |  |  | < 0.01 | > 100 | < 0.01 | 14.8 |
| CN1CCN(C(=O)c2c(NC(=O)NS(=O)(=O)c3ccccc3)sc3c2CCCCC3)CC1 | 21.6 | 49.8 | 21.9 | 44.2 |  |  | 30 | 84.9 | 76.3 | > 100 | 20.3 | 54.4 | 41 | > 100 |  |  | 33.7 | 98.7 |  |  |
| COc1ccc2c(c1)c1nc3cc(C)c(C)cc3nc1n2CCN(C)C | 1.1 | 2.57 | 1.07 | 2.58 | 0.678 | 2.32 | 0.375 | 1.6 | 0.953 | 2.3 | 0.632 | 2.1 | 1.06 | 2.37 | 1.5 | 3.48 | 1.16 | 2.85 | 0.354 | 1.64 |
| COc1ccc(-c2nn(-c3cccc(Cl)c3)cc2-c2c(C#N)c(=O)n3[nH]c(-c4ccc(C)cc4)nc3c2C#N)cc1 | 1.66 | 6.67 | 5.04 | 10.8 | 2.17 | 18.2 | 2.44 | 17.1 | 4.5 | 11.8 | 2.46 | 10.4 | 2.74 | 21.9 | 3.3 | 9.54 | 1.62 | 9.2 | 1.24 | 6 |
| CCn1c2ccc(C(=O)CCCN(C)C)cc2c2cc(C(=O)CCCN(C)C)ccc21 |  | 5.1 |  | 6.05 |  | 9.31 |  | 4.76 |  | 9.34 |  | 7.42 |  | 8.34 |  | 22.1 |  | 6.79 |  | 11.6 |
| O=C(/C=C/c1cccc([N+](=O)[O-])c1)c1ccc(O)c(CN2CCN(c3cc4c(cc3F)c(=O)c(C(=O)O)cn4C3CC3)CC2)c1 |  |  | 1.92 | 3.43 | 1.34 | 2.79 | 0.364 | 1.41 | 1.75 | 3.35 | 1.63 | 3.24 | 1.41 | 2.74 | 5 | > 100 | 1.71 | 3.32 | 0.494 | 1.81 |
